Experiments:
[1] = Stability of acidified TA 2005-HFA 134a solutions in cans coated with a fluorocarbon polymer, stored upright at 50° C.; type: physicochemical
Method: Comparative Example 1 (corresponding to Example 7 of WO 01/89480). Stability of acidified TA 2005-HFA 134a solutions in cans coated with a fluorocarbon polymer.
(§1) A solution of TA 2005 (3.5 μg/50 μl) was prepared by dissolving 0.84 mg of the active ingredient in HFA 134a containing 12% w/w ethanol and 1.0% w/w of isopropyl myristate. pMDI coated cans containing 1.0, 1.4, and 1.8 μl of 0.08 M hydrochloric acid (corresponding respectively to an apparent pH of about 4.8, 3.2, and 2.9) were set down on storage, upright at 50° C., and samples taken for analysis of TA 2005 contents at appropriate intervals.
Each value is expressed as percent nominal drug concentration.

[2] = Stability study of TA 2005 HFA 134a formulations with 0.1M hydrochloric acid, upright cans at 40° C. and 75% relative humidity; type: physicochemical; settings: TA 2005 1 μg/63 μl, 15% w/w ethanol
Method: Two aluminum canisters having the internal surface coated with teflon and fitted with commercial valves having a 63 μl metering chamber were filled with the following formulations shown in Table 2. A stability study was carried out by storing the formulations in upright cans at 40° C. and 75% relative humidity.

[3] = Stability study of TA 2005 HFA 134a formulation with 15.2M phosphoric acid, upright and inverted cans at 40° C. and 75% relative humidity; type: physicochemical; settings: TA 2005 1 μg/63 μl, 15% w/w ethanol, phosphoric acid 15.2M 0.001 to 0.0027% w/w
Method: The formulation of Table 3 (120 actuations canister, overage of 30 actuations) was filled in aluminum canisters having the internal surface coated with teflon and fitted with commercial valves having a 63 μl metering chamber. A stability study was carried out by storing the formulation in upright and inverted cans at 40° C. and 75% relative humidity.

[4] = Stability of TA 2005 + budesonide HFA 134a compositions with phosphoric acid, 40° C. and 75% relative humidity; type: physicochemical; settings: TA 2005 1 μg + budesonide 200 μg/actuation, phosphoric acid 85% 0.0032 or 0.0064% w/w, 0.15% w/w water
Method: The two compositions containing TA 2005 and budesonide as active ingredients and two different concentrations of phosphoric acid as shown in Table 4 were prepared.
Volume of the valve: 63 μl; strength: TA 2005 1 μg+budesonide 200 μg/actuation; no. of actuations: 120 (34 overfilling doses).
The two active ingredients in the compositions were stable after three months storage at 40° C. and 75% relative humidity, giving residual percent amounts of at least 95% TA 2005 and about 100% of Budesonide.

[5] = Apparent pH (acidity function pH') of acidified TA 2005 solutions; type: physicochemical; settings: TA 2005 3.5 μg/50 μl in HFA 134a
Source text: The attribution ‘apparent’ is used as pH is indeed characteristic of aqueous liquids where water is the dominant component (Mole Fraction >0.95). […] Although the Nernst equation with respect to EMF applies and the pH-meter glass electrode system will generate a variable milli-volt output according to proton concentration and vehicle polarity, the “pH” meter reading is not a true pH value. The meter reading represents an apparent pH or acidity function (pH′).
Rather concentrated, i.e., more than about 10 M, preferably more than about 12 M, and most preferably about 15 M phosphoric acid is used to adjust the apparent pH. In the examples that follow 85%, i.e., 15.2M phosphoric acid has been used. The amount of acid to be added to reach the desired apparent pH will be pre-determined in the model vehicle reported before
1.0 M hydrochloric acid was added incrementally to 50 ml of HFA 43-10MEE (Vertrel XF) containing 20% w/w ethanol and the pH′ was measured after each aliquot of acid.
as §1

[6] = 4 μg per actuation, HCl stabilized, stored upright at 5° C., after nine months (WO 03/074025); cited from earlier work
[7] = HFA propellant and ethanol, conventional aluminum or plastic coated glass cans; 40° C., 75% relative humidity, one month (WO 99/65460); cited from earlier work

| Structure (SMILES) | TA 2005 content, percent nominal drug concentration, 50° C.; 22 days upright ([1]; 1.0 μl 0.08M HCl per can) [%] | TA 2005 content, percent nominal drug concentration, 50° C.; 83 days upright ([1]; 1.0 μl 0.08M HCl per can) [%] | TA 2005 content, percent nominal drug concentration, Initial ([1]; 1.0 μl 0.08M HCl per can, TA 2005 3.5 μg/50 μl, 12% w/w ethanol, 1.0% w/w isopropyl myristate) [%] | TA 2005 content, percent nominal drug concentration, 50° C.; 22 days upright ([1]; 1.4 μl 0.08M HCl per can) [%] | TA 2005 content, percent nominal drug concentration, 50° C.; 83 days upright ([1]; 1.4 μl 0.08M HCl per can) [%] | TA 2005 content, percent nominal drug concentration, Initial ([1]; 1.4 μl 0.08M HCl per can) [%] | TA 2005 content, percent nominal drug concentration, 50° C.; 22 days upright ([1]; 1.8 μl 0.08M HCl per can) [%] | TA 2005 content, percent nominal drug concentration, 50° C.; 83 days upright ([1]; 1.8 μl 0.08M HCl per can) [%] | TA 2005 content, percent nominal drug concentration, Initial ([1]; 1.8 μl 0.08M HCl per can) [%] | percent amount of TA 2005 after three months of storage ([2]; 0.1M HCl 0.018% w/w) [%] | percent amount of TA 2005 after three months of storage ([2]; 0.1M HCl 0.027% w/w) [%] | residual percent amount of TA 2005 after three months of storage [3] | residual percent amount after three months storage [4] | apparent pH ([5]; 1.0 μl of 0.08 M hydrochloric acid per can) | apparent pH ([5]; 1.4 μl of 0.08 M hydrochloric acid per can) | apparent pH ([5]; 1.8 μl of 0.08 M hydrochloric acid per can) | TA 2005 assay [6] | loss of drug [7] |
| --- | --- | --- | --- | --- | --- | --- | --- | --- | --- | --- | --- | --- | --- | --- | --- | --- | --- | --- |
| COc1ccc(C[C@@H](C)NC[C@H](O)c2ccc(O)c3[nH]c(=O)ccc23)cc1.Cl [TA 2005, 8-hydroxy-5-[(1R)-1-hydroxy-2-[[(1R)-2-(4-methoxyphenyl)-1-methylethyl]amino]ethyl]-2(1H)-quinolinone hydrochloride] | 98.3 | 99.4 | 100.0 | 98.2 | 98.8 | 100.0 | 90.2 | 88.1 | 100.0 | 73 | 77 | up to 98% | at least 95% | about 4.8 | ~3.2 | ~2.9 | higher than 95% | – |
| COc1ccc(C[C@@H](C)NC[C@H](O)c2ccc(O)c(NC=O)c2)cc1.COc1ccc(C[C@@H](C)NC[C@H](O)c2ccc(O)c(NC=O)c2)cc1.O=C(O)/C=C/C(=O)O [formoterol fumarate] | – | – | – | – | – | – | – | – | – | – | – | – | – | – | – | – | – | about 10% |

— patent publication US20050220718A1, “Stable pharmaceutical solution formulations for pressurized metered dose inhalers” (Chiesi Farmaceutici S.p.A., priority 2004, published 2005)
